Experimental data as given in publication PMC4354951 (European journal of medicinal chemistry, 2008).
Where “and” joins values, the source holds several entries; their conditions need not be identical. Identical values can stand only once.

Experiments:
human NPP3 = molecular target: T1, human NPP3 (Homo sapiens, UniProt O14638); experiment: Hydrolysis by NPP3; assay type: biochemical; conditions: 100 μM substrate; relative to pnp-TMP hydrolysis (100%)
T1 sequence (O14638 1-875): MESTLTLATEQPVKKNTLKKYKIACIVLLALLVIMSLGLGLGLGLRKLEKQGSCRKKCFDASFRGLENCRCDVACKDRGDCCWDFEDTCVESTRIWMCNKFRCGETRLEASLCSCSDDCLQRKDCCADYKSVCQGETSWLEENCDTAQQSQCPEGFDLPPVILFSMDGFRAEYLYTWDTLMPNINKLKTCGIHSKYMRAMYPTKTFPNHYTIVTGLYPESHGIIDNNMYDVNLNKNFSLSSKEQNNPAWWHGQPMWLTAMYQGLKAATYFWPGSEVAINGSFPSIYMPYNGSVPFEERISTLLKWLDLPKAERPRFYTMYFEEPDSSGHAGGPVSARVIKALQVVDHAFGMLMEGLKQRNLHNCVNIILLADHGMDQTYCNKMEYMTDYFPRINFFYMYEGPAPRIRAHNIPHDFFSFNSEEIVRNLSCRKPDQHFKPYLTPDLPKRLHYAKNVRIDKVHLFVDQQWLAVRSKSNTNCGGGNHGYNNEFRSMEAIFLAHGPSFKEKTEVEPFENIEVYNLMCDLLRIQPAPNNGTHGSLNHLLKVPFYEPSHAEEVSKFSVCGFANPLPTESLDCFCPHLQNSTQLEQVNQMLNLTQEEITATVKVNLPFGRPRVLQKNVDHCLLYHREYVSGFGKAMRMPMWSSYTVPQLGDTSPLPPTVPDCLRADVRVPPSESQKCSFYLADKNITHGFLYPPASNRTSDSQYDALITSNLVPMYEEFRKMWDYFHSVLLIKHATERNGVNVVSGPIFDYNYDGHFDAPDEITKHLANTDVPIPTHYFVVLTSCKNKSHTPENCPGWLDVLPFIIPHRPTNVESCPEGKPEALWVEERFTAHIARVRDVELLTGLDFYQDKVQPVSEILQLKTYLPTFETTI

human NTPDase1 = molecular target: T2, human NTPDase1 (Homo sapiens, UniProt P49961); experiment: Hydrolysis by NTPDase1; assay type: biochemical; conditions: 100 μM substrate; relative to ATP hydrolysis (100%)
T2 sequence (P49961 1-510): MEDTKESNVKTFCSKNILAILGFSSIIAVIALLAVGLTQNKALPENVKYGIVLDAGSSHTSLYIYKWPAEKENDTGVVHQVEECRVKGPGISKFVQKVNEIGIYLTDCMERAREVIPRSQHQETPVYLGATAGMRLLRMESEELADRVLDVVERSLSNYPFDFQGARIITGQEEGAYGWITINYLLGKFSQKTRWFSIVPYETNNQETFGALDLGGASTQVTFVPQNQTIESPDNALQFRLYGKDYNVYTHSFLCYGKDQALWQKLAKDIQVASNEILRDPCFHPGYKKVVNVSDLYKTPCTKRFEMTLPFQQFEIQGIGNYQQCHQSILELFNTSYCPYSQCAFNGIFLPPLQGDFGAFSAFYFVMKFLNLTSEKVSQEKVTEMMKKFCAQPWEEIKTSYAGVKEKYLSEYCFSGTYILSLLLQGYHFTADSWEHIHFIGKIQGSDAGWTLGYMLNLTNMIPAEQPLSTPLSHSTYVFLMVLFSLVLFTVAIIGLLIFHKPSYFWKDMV

human NTPDase3 = molecular target: T3, human NTPDase3 (Homo sapiens, UniProt O75355); experiment: Hydrolysis by NTPDase3; assay type: biochemical; conditions: 100 μM substrate; relative to ATP hydrolysis (100%)
T3 sequence (O75355 1-529): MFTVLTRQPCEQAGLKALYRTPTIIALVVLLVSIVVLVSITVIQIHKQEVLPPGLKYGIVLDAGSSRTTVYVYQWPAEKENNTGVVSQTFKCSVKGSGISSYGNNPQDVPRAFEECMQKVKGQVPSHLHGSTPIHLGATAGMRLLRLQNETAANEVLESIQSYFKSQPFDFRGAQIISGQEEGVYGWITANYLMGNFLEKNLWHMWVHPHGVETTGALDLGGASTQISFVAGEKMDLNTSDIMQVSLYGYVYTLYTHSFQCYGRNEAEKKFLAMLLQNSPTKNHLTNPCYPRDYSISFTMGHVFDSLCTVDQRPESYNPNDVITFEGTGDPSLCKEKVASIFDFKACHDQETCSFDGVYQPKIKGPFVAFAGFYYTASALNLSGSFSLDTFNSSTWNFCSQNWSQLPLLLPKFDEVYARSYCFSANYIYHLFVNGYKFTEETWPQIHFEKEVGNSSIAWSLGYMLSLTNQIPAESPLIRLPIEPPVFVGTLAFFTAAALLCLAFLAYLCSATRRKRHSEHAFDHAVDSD

[1] = Stability in human blood serum, Method B; conditions: Method B; 37 °C, up to 144 h
[2] = Chemical hydrolysis under gastric juice-like conditions; assay type: physicochemical

Row | SMILES | Relative activity of NPP3 (human NPP3) | Relative activity of NTPDase1 (human NTPDase1) | Relative activity of NTPDase3 (human NTPDase3) | resistance to enzymatic hydrolysis in human blood serum [1] | fraction degraded ([2]; 0.2 M HCl/KCl pH 1.4, 37 °C, after 19 h) | t1/2 of acidic hydrolysis ([2]; KCl/HCl buffer pH 1.4, 37 °C, 31P NMR (2) or HPLC-MS (3B, 4B))
1 | [BH3-][P+](O)(OC[C@H]1O[C@@H](n2cnc3c(N)ncnc32)[C@H](O)[C@@H]1O)OP(=O)(O)CP(=O)(O)O (single isomer, unassigned) [3A, Adenosine-5′-O-(α-boranotriphosphate)-β,γ-CH2] | 0% | 1.0 ± 2.1% | 0% |  |  | 
2 | [BH3-][P+](O)(OC[C@H]1O[C@@H](n2cnc3c(N)nc(SC)nc32)[C@H](O)[C@@H]1O)OP(=O)(O)CP(=O)(O)O (single isomer, unassigned) [4A, 2-MeS–adenosine-5′-O-(α-boranotriphosphate)-β,γ-CH2] | 10% and 9.9 ± 0.5% | <1% | 2.0 ± 0.26% | completely resistant to enzymatic hydrolysis for at least 6 days |  | 
3 | [BH3-][P+](O)(OC[C@H]1O[C@@H](n2cnc3c(N)ncnc32)[C@H](O)[C@@H]1O)OP(=O)(O)CP(=O)(O)O (single isomer, unassigned) [3B, Adenosine-5′-O-(α-boranotriphosphate)-β,γ-CH2] | 3.0 ± 0.05% | 0% | 6.0 ± 0.16% |  | 50% | 19 h
